Among the data in patent publication US10442803B2, “Tricyclic heterocycles as bet protein inhibitors” (Incyte Corporation, priority 2013, dated 2019) are IC50 values, retold here.

Broadly, the IC50 is the point on the concentration scale where inhibition reaches its midpoint.

For this assay, the system named is KMS.12.BM cells. The experiment in a line: KMS.12.BM cell viability assay. Format: cell-based. Particulars: 72 h; KMS.12.BM human myeloma cells, 3 days, Cell Titer-GLO ATP quantitation; read-out: KMS cellular IC50. The protocol: KMS.12.BM cell line (human myeloma) was purchased from JCRB (Osaka, Japan) and maintained in RPMI with 10% FBS culture medium. To measure the cytotoxic activity of the compounds through ATP quantitation, the KMS.12.BM cells are plated in the RPMI culture medium at 5000 cells/well/per 100 μL into a 96-well polystyrene clear black tissue culture plate (Greiner-bio-one through VWR, NJ), in the presence or absence of a concentration range of test compounds. After 3 days, […] Cell Titer-GLO Luminescent (Promega, Madison, Wis.) cell culture agent is added to each well for 10 minutes at room temperature to stabilize the luminescent signal. This determines the number of viable cells in culture based on quantitation of the ATP present, which signals the presence of metabolically active cells. Luminescence is measured with the Top Count 384 (Packard Bioscience through Perkin Elmer, Boston, Mass.).
IC50 data for the Examples is presented in Table 4 as determined by Assay B1.
Background: ATP-based viability assays read luminescence as a measure of living cells.
Take `Cc1cc2c(ccc3nnc(C)n32)n1Cc1ccc(CN2CCC2)cc1` [Example 50, 6-[4-(azetidin-1-ylmethyl)benzyl]-1,7-dimethyl-6H-pyrrolo[2,3-e][1,2,4]triazolo[4,3-a]pyridine]: the IC50 was 1 to 10 µM.
In the case of `Cc1cc2c(ccc3nnc(C)n32)n1Cc1ccc(CN2CC(O)C2)cc1` [Example 52, 1-{4-[(1,7-dimethyl-6H-pyrrolo[2,3-e][1,2,4]triazolo[4,3-a]pyridin-6-yl)methyl]benzyl}azetidin-3-ol], the half-inhibitory concentration (IC50) is 1 to 10 µM.
For `Cc1cc2c(ccc3nnc(C)n32)n1Cc1ccc(CN(C)C)cc1` [Example 53, 1-{4-[(1,7-dimethyl-6H-pyrrolo[2,3-e][1,2,4]triazolo[4,3-a]pyridin-6-yl)methyl]phenyl}-N,N-dimethylmethanamine], the IC50 lay within 1 to 10 µM.
As for `COC1CN(Cc2cccc(Cn3c(C)cc4c3ccc3nnc(C)n34)c2)C1` [Example 54, 6-{3-[(3-methoxyazetidin-1-yl)methyl]benzyl}-1,7-dimethyl-6H-pyrrolo[2,3-e][1,2,4]triazolo[4,3-a]pyridine], the 50% inhibitory concentration (IC50) is at most 1 µM.
Turning to `Cc1nc2c(ccc3nnc(C)n32)n1Cc1ccccc1` [Example 55, 3-benzyl-2,8-dimethyl-3H-imidazo[4,5-e][1,2,4]triazolo[4,3-a]pyridine], the IC50 was at most 1 µM.
For the molecule `Cc1nnc2ccc3c(cc(CO)n3Cc3ccccc3)n12` [Example 56, (6-benzyl-1-methyl-6H-pyrrolo[2,3-e][1,2,4]triazolo[4,3-a]pyridin-7-yl)methanol], the IC50 fell in the range of 1 to 10 µM.
For `Cc1nnc2ccc3c(cc(Cn4ccnc4)n3Cc3ccccc3)n12` [Example 57, 6-benzyl-7-(1H-imidazol-1-ylmethyl)-1-methyl-6H-pyrrolo[2,3-e][1,2,4]triazolo[4,3-a]pyridine], the IC50 is 1 to 10 µM.
With `Cc1nnc2ccc3c(cc(C(N)=O)n3Cc3ccccc3)n12` [Example 58, 6-benzyl-1-methyl-6H-pyrrolo[2,3-e][1,2,4]triazolo[4,3-a]pyridine-7-carboxamide], the half-inhibitory concentration (IC50) was at most 1 µM.
For `CCNC(=O)c1cc2c(ccc3nnc(C)n32)n1Cc1ccccc1` [Example 59, 6-benzyl-N-ethyl-1-methyl-6H-pyrrolo[2,3-e][1,2,4]triazolo[4,3-a]pyridine-7-carboxamide], the IC50 is at most 1 µM.
The same measure for `Cc1nnc2ccc3c(cc(C(=O)N4CC(C#N)C4)n3Cc3ccccc3)n12` [Example 60, 1-[(6-benzyl-1-methyl-6H-pyrrolo[2,3-e][1,2,4]triazolo[4,3-a]pyridin-7-yl)carbonyl]azetidine-3-carbonitrile]: at most 1 µM.
For `Cc1nnc2ccc3c(cc(CCO)n3Cc3ccccc3)n12` [Example 61, 2-(6-benzyl-1-methyl-6H-pyrrolo[2,3-e][1,2,4]triazolo[4,3-a]pyridin-7-yl)ethanol], the IC50 was in the range of 1 to 10 µM.
For `Cc1nnc2ccc3c(cc(-c4ccn[nH]4)n3Cc3ccccc3)n12` [Example 62, 6-benzyl-1-methyl-7-(1H-pyrazol-5-yl)-6H-pyrrolo[2,3-e][1,2,4]triazolo[4,3-a]pyridine], the IC50 was at most 1 µM.
As for `Cc1nnc2ccc3c(cc(-c4cn[nH]c4)n3Cc3ccccc3)n12` [Example 63, 6-benzyl-1-methyl-7-(1H-pyrazol-4-yl)-6H-pyrrolo[2,3-e][1,2,4]triazolo[4,3-a]pyridine], the IC50 was at most 1 µM.
For the molecule `Cc1nnc2ccc3c(cc(-c4cnn(CC#N)c4)n3Cc3ccccc3)n12` [Example 64, [4-(6-benzyl-1-methyl-6H-pyrrolo[2,3-e][1,2,4]triazolo[4,3-a]pyridin-7-yl)-1H-pyrazol-1-yl]acetonitrile], the concentration for half-maximal inhibition (IC50) is at most 1 µM.
In the case of `Cc1nnc2ccc3c(cc(-c4ccn(CC#N)n4)n3Cc3ccccc3)n12` [Example 65, [3-(6-benzyl-1-methyl-6H-pyrrolo[2,3-e][1,2,4]triazolo[4,3-a]pyridin-7-yl)-1H-pyrazol-1-yl]acetonitrile], the concentration for half-maximal inhibition (IC50) is at most 1 µM.
The same measure for `Cc1nnc2ccc3c(cc(-c4cscn4)n3Cc3ccccc3)n12` [Example 66, 6-benzyl-1-methyl-7-(1,3-thiazol-4-yl)-6H-pyrrolo[2,3-e][1,2,4]triazolo[4,3-a]pyridine]: at most 1 µM.
Turning to `Cc1nnc2ccc3c(cc(-c4nccs4)n3Cc3ccccc3)n12` [Example 67, 6-benzyl-1-methyl-7-(1,3-thiazol-2-yl)-6H-pyrrolo[2,3-e][1,2,4]triazolo[4,3-a]pyridine], the half-inhibitory concentration (IC50) is at most 1 µM.
Take `Cc1nnc2ccc3c(cc(-c4ccccn4)n3Cc3ccccc3)n12` [Example 68, 6-benzyl-1-methyl-7-pyridin-2-yl-6H-pyrrolo[2,3-e][1,2,4]triazolo[4,3-a]pyridine]: the 50% inhibitory concentration (IC50) was at most 1 µM.
As for `Cc1nnc2ccc3c(cc(-c4cncs4)n3Cc3ccccc3)n12` [Example 69, 6-benzyl-1-methyl-7-(1,3-thiazol-5-yl)-6H-pyrrolo[2,3-e][1,2,4]triazolo[4,3-a]pyridine], the figure is at most 1 µM; as for `Cc1nnc2ccc3c(cc(-c4cn(C)cn4)n3Cc3ccccc3)n12` [Example 70, 6-benzyl-1-methyl-7-(1-methyl-1H-imidazol-4-yl)-6H-pyrrolo[2,3-e][1,2,4]triazolo[4,3-a]pyridine], at most 1 µM; as for `Cc1nnc2ccc3c(cc(-c4ccsc4)n3Cc3ccccc3)n12` [Example 72, 6-benzyl-1-methyl-7-(3-thienyl)-6H-pyrrolo[2,3-e][1,2,4]triazolo[4,3-a]pyridine], at most 1 µM.
Turning to `Cc1nnc2ccc3c(cc(-c4cccs4)n3Cc3ccccc3)n12` [Example 73, 6-benzyl-1-methyl-7-(2-thienyl)-6H-pyrrolo[2,3-e][1,2,4]triazolo[4,3-a]pyridine], the IC50 is at most 1 µM.
The same measure for `Cc1nnc2ccc3c(cc(-c4c[nH]cn4)n3Cc3ccccc3)n12` [Example 74, 6-benzyl-7-(1H-imidazol-4-yl)-1-methyl-6H-pyrrolo[2,3-e][1,2,4]triazolo[4,3-a]pyridine]: at most 1 µM; for `Cc1nnc2ccc3c(cc(-c4cn(CCN5CCOCC5)cn4)n3Cc3ccccc3)n12` [Example 75, 6-benzyl-1-methyl-7-[1-(2-morpholin-4-ylethyl)-1H-imidazol-4-yl]-6H-pyrrolo[2,3-e][1,2,4]triazolo[4,3-a]pyridine]: at most 1 µM.
As for `Cc1nnc2ccc3c(cc(-c4ccn(C)n4)n3Cc3ccccc3)n12` [Example 76, 6-benzyl-1-methyl-7-(1-methyl-1H-pyrazol-3-yl)-6H-pyrrolo[2,3-e][1,2,4]triazolo[4,3-a]pyridine], the half-maximal inhibitory concentration (IC50) is at most 1 µM.
With `Cc1nnc2ccc3c(cc(-c4ccn(CCN5CCOCC5)n4)n3Cc3ccccc3)n12` [Example 77, 6-benzyl-1-methyl-7-[1-(2-morpholin-4-ylethyl)-1H-pyrazol-3-yl]-6H-pyrrolo[2,3-e][1,2,4]triazolo[4,3-a]pyridine], the half-maximal inhibitory concentration (IC50) was at most 1 µM.
`Cc1nnc2ccc3c(cc(-c4ccn(CCC#N)n4)n3Cc3ccccc3)n12` [Example 78, 3-[3-(6-benzyl-1-methyl-6H-pyrrolo[2,3-e][1,2,4]triazolo[4,3-a]pyridin-7-yl)-1H-pyrazol-1-yl]propanenitrile]: the IC50 was at most 1 µM.
The same measure for `CCn1ccc(-c2cc3c(ccc4nnc(C)n43)n2Cc2ccccc2)n1` [Example 79, 6-benzyl-7-(1-ethyl-1H-pyrazol-3-yl)-1-methyl-6H-pyrrolo[2,3-e][1,2,4]triazolo[4,3-a]pyridine]: at most 1 µM.
